Some test systems named below: HOP-92 NSCLC; A498 renal; SF-539 CNS; CCRF-CEM leukemia; UO-31 renal; SK-OV-3 ovarian; SNB-19 CNS; SK-MEL-5 melanoma; A549 NSCLC; MALME-3M melanoma.
Holding throughout (assay): DTP human tumour cell line panel, 48 h

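Assay format: 96-well plates, 48-hour exposure. GI50 marks 50% less growth. TGI denotes the concentration required for complete inhibition of growth.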

By GI50 is commonly meant the concentration that inhibits growth by half. As a reminder, the TGI is the concentration giving total growth inhibition. Read a low TGI as greater sensitivity of the cells. With `CCCCCCn1c(-c2ccc(C(=O)O/N=C(\N)c3ccc4c(c3)OCO4)cc2)nc(-c2ccccc2)c1-c1ccccc1`, the GI50 in the test on HOP-92 NSCLC was 1.48 µM; with A498 renal, 1.01 µM; in the test with SF-539 CNS, 1.72 µM; in the test with CCRF-CEM leukemia, 1.29 µM; in the test on UO-31 renal, 1.28 µM; in the test with SK-OV-3 ovarian it was 10.4 µM. In addition, the GI50 with SNB-19 CNS was 3.24 µM; with SK-MEL-5 melanoma, 2.22 µM; with A549 NSCLC, 1.41 µM; in the test on MALME-3M melanoma, 1.83 µM. The TGI with HOP-92 NSCLC turned out to be 3.3 µM; with A498 renal, 3.86 µM; in the test on SF-539 CNS, 3.2 µM; in the test with CCRF-CEM leukemia it was 4.25 µM; in the test on UO-31 renal it was 2.59 µM; in the test with SK-OV-3 ovarian it was 64.3 µM. The TGI with SNB-19 CNS is 12.2 µM; with SK-MEL-5 melanoma, 4.93 µM; in the test on A549 NSCLC, 3.68 µM; with MALME-3M melanoma, 4.06 µM.
As to `Nc1nc(Cl)nc2c1ncn2C1CC(O)C(CO)O1` (stereo not given), the TGI in the test with HOP-92 NSCLC was 24.2 µM; with A498 renal it was 48.2 µM; in the test with SF-539 CNS it was 76.8 µM; with CCRF-CEM leukemia, 11.5 µM; with UO-31 renal, 8.76 µM; with SK-OV-3 ovarian it was greater than 100 µM. The TGI in the test with SNB-19 CNS was greater than 100 µM; with SK-MEL-5 melanoma, greater than 91.4 µM; in the test with A549 NSCLC it was greater than 100 µM; in the test on MALME-3M melanoma it was greater than 100 µM.
On to `COc1cc(OC)c(OC)cc1/C=N/NC(=O)N/N=C/c1cc(OC)c(OC)cc1OC`, for which the concentration for total growth inhibition (TGI) in the test on HOP-92 NSCLC, in the test with A498 renal, in the test on SF-539 CNS, with CCRF-CEM leukemia, with UO-31 renal and in the test on SK-OV-3 ovarian was greater than 100 µM each time. The TGI in the test on SNB-19 CNS, in the test on SK-MEL-5 melanoma, in the test with A549 NSCLC and in the test on MALME-3M melanoma was greater than 100 µM throughout.
Turning to `O=C(c1ccc([N+](=O)[O-])cc1[N+](=O)[O-])N(/N=C/C=C/c1ccccc1)c1nnc(-c2ccccc2)c(-c2ccccc2)n1`, the TGI in the test on HOP-92 NSCLC was 51.2 µM; in the test on A498 renal, 95.2 µM; in the test on SF-539 CNS it was 30.1 µM; with CCRF-CEM leukemia, 84.2 µM; in the test on UO-31 renal, 50.6 µM; in the test on SK-OV-3 ovarian, greater than 100 µM. The TGI in the test on SNB-19 CNS, in the test with SK-MEL-5 melanoma, in the test with A549 NSCLC and in the test with MALME-3M melanoma was greater than 100 µM each time.
As for `C=CC12CCN(CC1)C(C(O)c1ccnc3ccc(OC)cc13)C2` (stereo not given), the GI50 with HOP-92 NSCLC was 35.2 µM; with A498 renal, 60.5 µM; in the test with SF-539 CNS, greater than 100 µM; with CCRF-CEM leukemia, greater than 100 µM; with UO-31 renal, 39.7 µM; in the test with SK-OV-3 ovarian, greater than 100 µM. For the same compound, the GI50 with SNB-19 CNS is greater than 100 µM; in the test with SK-MEL-5 melanoma, 39.2 µM; in the test with A549 NSCLC, greater than 100 µM; in the test with MALME-3M melanoma it was 86.6 µM. Also, the TGI in the test with HOP-92 NSCLC, with A498 renal, with SF-539 CNS, with CCRF-CEM leukemia, in the test with UO-31 renal and in the test on SK-OV-3 ovarian was greater than 100 µM each time. The TGI in the test with SNB-19 CNS, with SK-MEL-5 melanoma, in the test with A549 NSCLC and with MALME-3M melanoma was greater than 100 µM each time.
Take `O=C(O)c1ccc(CNCc2ccccc2)cc1`: the TGI in the test on HOP-92 NSCLC, with A498 renal, in the test on SF-539 CNS, in the test on CCRF-CEM leukemia, in the test with UO-31 renal and with SK-OV-3 ovarian was greater than 100 µM throughout. The TGI with SNB-19 CNS, with SK-MEL-5 melanoma, in the test with A549 NSCLC and in the test on MALME-3M melanoma was greater than 100 µM throughout.
Turning to `COC(=O)/C=C/c1cc(OC(C)=O)c2c(c1)C(C(=O)OC)C(c1ccc(OC(C)=O)c(OC(C)=O)c1)O2` (stereo not given), the GI50 with HOP-92 NSCLC is 0.35 µM; with A498 renal it was 0.948 µM; in the test with SF-539 CNS, 0.0674 µM; with CCRF-CEM leukemia, 0.0404 µM; in the test on UO-31 renal it was 0.99 µM; with SK-OV-3 ovarian it was 2.46 µM. Besides, the GI50 in the test with SNB-19 CNS was 0.131 µM; in the test with SK-MEL-5 melanoma, 0.0572 µM; in the test with A549 NSCLC, 1.35 µM; in the test on MALME-3M melanoma, 1.08 µM. The TGI in the test on HOP-92 NSCLC is 24.8 µM; in the test with A498 renal, 5.58 µM; with SF-539 CNS it was 2.41 µM; in the test with CCRF-CEM leukemia, greater than 100 µM; with UO-31 renal it was greater than 72.3 µM; in the test on SK-OV-3 ovarian it was greater than 73.9 µM. Further, the TGI with SNB-19 CNS was greater than 100 µM; with SK-MEL-5 melanoma, 1.98 µM; in the test on A549 NSCLC it was greater than 56.7 µM; in the test with MALME-3M melanoma it was 56.6 µM.
For `COCOCCC#CCO`, the TGI in the test on HOP-92 NSCLC, in the test with A498 renal, in the test with SF-539 CNS, in the test with CCRF-CEM leukemia, in the test on UO-31 renal and in the test with SK-OV-3 ovarian was greater than 100 µM in each case. Moreover, the TGI in the test with SNB-19 CNS, in the test with SK-MEL-5 melanoma, in the test with A549 NSCLC and with MALME-3M melanoma was greater than 100 µM each time.
Turning to `Cc1cccc(NC2=C(Cl)C(=O)c3nc(C)ccc3C2=O)c1`, the GI50 was 1.66 µM in the test with HOP-92 NSCLC; 0.235 µM in the test on A498 renal; 1.39 µM in the test on SF-539 CNS; 2.29 µM in the test with CCRF-CEM leukemia; 1.29 µM with UO-31 renal; 11.7 µM in the test with SK-OV-3 ovarian. In addition, the GI50 in the test on SNB-19 CNS was 1.29 µM; in the test with SK-MEL-5 melanoma, 1.66 µM; with A549 NSCLC, 2.18 µM; in the test on MALME-3M melanoma, 1.65 µM. In addition, the TGI was 3.27 µM with HOP-92 NSCLC; 2.43 µM in the test with A498 renal; 2.75 µM with SF-539 CNS; greater than 100 µM in the test with CCRF-CEM leukemia; 2.59 µM with UO-31 renal; 24.2 µM with SK-OV-3 ovarian. Moreover, the TGI in the test on SNB-19 CNS stood at 10.3 µM; with SK-MEL-5 melanoma, 3.03 µM; with A549 NSCLC it was 6.11 µM; in the test with MALME-3M melanoma it was 3.07 µM.
Turning to `CN1Nc2ccccc2CC1=O`, the TGI with HOP-92 NSCLC, in the test with A498 renal, in the test on SF-539 CNS, in the test on CCRF-CEM leukemia, in the test with UO-31 renal and in the test with SK-OV-3 ovarian was greater than 100 µM throughout. In addition, the TGI in the test on SNB-19 CNS, in the test on SK-MEL-5 melanoma, with A549 NSCLC and in the test on MALME-3M melanoma was greater than 100 µM throughout.

For the origin of these results see PubChem BioAssay (NCI).
